Laboratory results from patent US9801961B2, “2-phenylimidazo[1,2-a]pyrimidines as imaging agents” (Hoffmann-La Roche Inc., priority 2013, dated 2017).

test system: native tau aggregates; assay: TAU radioligand in vitro displacement assay ([3H]T808 autoradiography on human AD brain sections); assay type: binding; conditions: compound 10 nM, radioligand [3H]T808 10 nM, 50 mM Tris pH 7.4, room temperature, 30 min
Experimental: TAU Radioligand-In-Vitro Displacement Assay
This in vitro binding assay assesses the affinity of compounds for native tau aggregates. The compounds are co-incubated with the well-established tau specific radioligand [^3H]T808 and the compound's displacement potency of [^3H]T808 binding is determined by in vitro autoradiography using human Alzheimer's disease (AD) brain sections (FIG. 1).
AD human brains are purchased from Banner Sun Health Research Institute (Sun City, Ariz., USA). Pathological diagnosis of AD is made according to standard NIA-Reagan Institute criteria based on neuropathological data. The radioligand [^3H]T808 was synthesized in-house ([^3H]-2-[4-(2-Fluoro-ethyl)-piperidin-1-yl]-benzo[4,5]imidazo[1,2-a]pyrimidine, radiochemical purity 99.0%). As a reference cold T808 is used (2-[4-(2-Fluoro-ethyl)-piperidin-1-yl]-benzo[4,5]imidazo[1,2-a]pyrimidine). For the autoradiography FujiFilm Imaging Plates (BAS-IP TR 2025) are exposed to the sections and read with a FujiFilm IP reader (BAS-5000).
Ten μm thick human AD brain sections are generated with a cryostat (Leica CM3050) at −17° C. chamber temperature and −15° C. object temperature. Sections are transferred to Histobond+microscope slides (Marienfeld Laboratory Glasware). After drying for 3 hours at room temperature the sections are stored at −20° C. The sections are incubated with the radioligand (10 nM) and the respective cold compound (at various concentrations) in 50 mM Tris buffer, pH 7.4 at room temperature for 30 min. After washing 3×10 min at 4° C. in 50 mM Tris buffer, pH 7.4 and 3 quick dips in H2O dist. at 4° C. the sections are dried at 4° C. for 3 h. The sections are placed in a FujiFilm Cassette (BAS 2025), exposed with an Imaging Plate for five days and afterwards scanned with a resolution of […].
The signal intensity (Dens—PSL/mm2) in the region of interest (ROI) of the autoradiogram is quantified with the software MCID analysis (version 7.0, Imaging Research Inc.). The specific binding (SB) of [^3H]T808 binding in absence or in presence of a compound is calculated by subtracting the non-specific binding signal in the white matter, thus yielding SB[3H]T808 only and SBcompund. The % displacement by the various compounds is calculated as following: % displacement=100−(SBcompund/SB[3H]T808 only)*100.
In each experiment cold T808 is used as a positive internal control. Co-incubation of equimolar amounts of hot and cold T808 is expected to reduce specific binding by approximately 50%.

| Compound | % displacement of [3H]T808 (10 nM) at 10 nM [%] |
| --- | --- |
| COc1ccc(-c2cn3ccc(N4CCC(F)CC4)nc3n2)cc1 [Example 3, 7-(4-Fluoropiperidin-1-yl)-2-(4-methoxyphenyl)imidazo[1,2-a]pyrimidine] | 31 |
| COc1ccc(-c2cn3ccc(N4CCOCC4)nc3n2)cc1OC [Example 27, 4-[2-(3,4-Dimethoxyphenyl)imidazo[1,2-a]pyrimidin-7-yl]morpholine] | 17 |
| CNc1ccn2cc(-c3cccc(C)c3)nc2n1 [Example 62, N-Methyl-2-(3-methylphenyl)imidazo[1,2-a]pyrimidin-7-amine] | 48 |
| COc1ccc(-c2cn3ccc(N4CCOCC4)nc3n2)cc1 [Example 25, 4-[2-(4-Methoxyphenyl)imidazo[1,2-a]pyrimidin-7-yl]morpholine] | 16 |
| COc1ccc(-c2cn3ccc(N4CCC4)nc3n2)cc1OC [Example 128, 7-(Azetidin-1-yl)-2-(3,4-dimethoxyphenyl)imidazo[1,2-a]pyrimidine] | 15 |
| FC1CCN(c2ccn3cc(-c4cc5ccccc5o4)nc3n2)CC1 [Example 73, 2-(1-Benzofuran-2-yl)-7-(4-fluoropiperidin-1-yl)imidazo[1,2-a]pyrimidine] | 19 |
| FC1CCN(c2ccn3cc(-c4ccc(N5CCCC5)cc4)nc3n2)CC1 [Example 14, 7-(4-Fluoropiperidin-1-yl)-2-(4-pyrrolidin-1-ylphenyl)imidazo[1,2-a]pyrimidine] | 18 |
| CNc1ccn2cc(-c3ccc(OC)c(OC)c3)nc2n1 [Example 142, 2-(3,4-Dimethoxyphenyl)-N-methylimidazo[1,2-a]pyrimidin-7-amine] | 21 |
| CNc1ccn2cc(-c3cccc(OCCF)c3)nc2n1 [Example 129, 2-(3-(2-Fluoroethoxy)phenyl)-N-methylimidazo[1,2-a]pyrimidin-7-amine] | 16 |
| COc1cc(OC)cc(-c2cn3ccc(N4CCC4)nc3n2)c1 [Example 121, 7-(Azetidin-1-yl)-2-(3,5-dimethoxyphenyl)imidazo[1,2-a]pyrimidine] | 5 |
| CNc1ccn2cc(-c3ccc(OC)c(F)c3)nc2n1 [Example 108, 2-(3-Fluoro-4-methoxyphenyl)-N-methylimidazo[1,2-a]pyrimidin-7-amine] | 36 |
| FCCCOc1ccc(-c2cn3ccc(NC4CC4)nc3n2)cc1 [Example 139, N-Cyclopropyl-2-(4-(3-fluoropropoxy)phenyl)imidazo[1,2-a]pyrimidin-7-amine] | 22 |
| FC1CN(c2ccn3cc(-c4ccccc4)nc3n2)C1 [Example 71, 7-(3-Fluoroazetidin-1-yl)-2-phenylimidazo[1,2-a]pyrimidine] | 18 |
| COc1ccc(-c2cn3ccc(N4CC(OC)C4)nc3n2)cc1 [Example 81, 7-(3-Methoxyazetidin-1-yl)-2-(4-methoxyphenyl)imidazo[1,2-a]pyrimidine] | 16 |
| FCOc1ccc(-c2cn3ccc(N4CCCC4)nc3n2)cc1 [Example 30, 2-[4-(Fluoromethoxy)phenyl]-7-pyrrolidin-1-ylimidazo[1,2-a]pyrimidine] | 9 |
| FCCOc1cccc(-c2cn3ccc(NC4CC4)nc3n2)c1 [Example 134, N-Cyclopropyl-2-(3-(2-fluoroethoxy)phenyl)imidazo[1,2-a]pyrimidin-7-amine] | 6 |
| Cc1ccc(-c2cn3ccc(N4CCC(CCF)CC4)nc3n2)cc1 [Example 60, 7-[4-(2-Fluoroethyl)piperidin-1-yl]-2-(4-methylphenyl)imidazo[1,2-a]pyrimidine] | 15 |
| CNc1ccn2cc(-c3cccc(OCF)c3)nc2n1 [Example 131, 2-(3-(Fluoromethoxy)phenyl)-N-methylimidazo[1,2-a]pyrimidin-7-amine] | 33 |
| FC1CCN(c2ccn3cc(-c4cnccn4)nc3n2)CC1 [Example 106, 7-(4-Fluoropiperidin-1-yl)-2-(pyrazin-2-yl)imidazo[1,2-a]pyrimidine] | 20 |
| FCCOc1ccc(-c2cn3ccc(N4CCCC4)nc3n2)cc1 [Example 29, 2-[4-(2-Fluoroethoxy)phenyl]-7-pyrrolidin-1-ylimidazo[1,2-a]pyrimidine] | 15 |
| COc1ccc(-c2cn3ccc(N4CC5(CCC5)C4)nc3n2)cc1 [Example 65, 7-(2-Azaspiro[3.3]heptan-2-yl)-2-(4-methoxyphenyl)imidazo[1,2-a]pyrimidine] | 11 |
| COc1cc(-c2cn3ccc(N4CCC4)nc3n2)ccc1C [Example 127, 7-(Azetidin-1-yl)-2-(3-methoxy-4-methylphenyl)imidazo[1,2-a]pyrimidine] | 11 |

More lines, now with the values ahead:

| % displacement of [3H]T808 (10 nM) at 10 nM [%] | Compound |
| --- | --- |
| 27 | CNc1ccn2cc(-c3ccc(C(=O)OC)cc3)nc2n1 [Example 136, Methyl 4-[7-(methylamino)imidazo[1,2-a]pyrimidin-2-yl]benzoate] |
| 15 | CN(C)c1ccc(-c2cn3ccc(N4CCC(F)CC4)nc3n2)cc1 [Example 91, 4-[7-(4-Fluoropiperidin-1-yl)imidazo[1,2-a]pyrimidin-2-yl]-N,N-dimethylaniline] |
| 16 | CN(C)c1ccc(-c2cn3ccc(N4CCOCC4)nc3n2)cc1 [Example 74, N,N-Dimethyl-4-(7-morpholin-4-ylimidazo[1,2-a]pyrimidin-2-yl)aniline] |
| 40 | COc1ccc(-c2cn3ccc(N4CCC4)nc3n2)cc1 [Example 69, 7-(Azetidin-1-yl)-2-(4-methoxyphenyl)imidazo[1,2-a]pyrimidine] |
| 25 | Oc1ccc(-c2cn3ccc(N4CCC4)nc3n2)cc1 [Example 80, 4-[7-(Azetidin-1-yl)imidazo[1,2-a]pyrimidin-2-yl]phenol] |
| 32 | CNc1ccn2cc(-c3ccc(O)cc3)nc2n1 [Example 122, 4-(7-(Methylamino)imidazo[1,2-a]pyrimidin-2-yl)phenol] |
| 22 | Fc1ccc(-c2cn3ccc(N4CCC4)nc3n2)cc1 [Example 119, 7-(Azetidin-1-yl)-2-(4-fluorophenyl)imidazo[1,2-a]pyrimidine] |
| 34 | CN(C)c1ccc(-c2cn3ccc(NCCF)nc3n2)cc1 [Example 96, 2-[4-(Dimethylamino)phenyl]-N-(2-fluoroethyl)imidazo[1,2-a]pyrimidin-7-amine] |
| 9 | COc1ccc(-c2cn3ccc(N(CCF)C4CC4)nc3n2)cc1 [Example 116, N-Cyclopropyl-N-(2-fluoroethyl)-2-(4-methoxyphenyl)imidazo[1,2-a]pyrimidin-7-amine] |
| 27 | CN(C)c1ccc(-c2cn3ccc(N(C)CCF)nc3n2)cc1 [Example 92, 2-[4-(Dimethylamino)phenyl]-N-(2-fluoroethyl)-N-methylimidazo[1,2-a]pyrimidin-7-amine] |
| 15 | COc1ccc(-c2cn3ccc(N(C)CCOCCF)nc3n2)cc1 [Example 64, N-[2-(2-Fluoroethoxy)ethyl]-2-(4-methoxyphenyl)-N-methylimidazo[1,2-a]pyrimidin-7-amine] |
| 43 | CN(C)c1ccc(-c2cn3ccc(N(C)C)nc3n2)cc1 [Example 46, 2-[4-(Dimethylamino)phenyl]-N,N-dimethylimidazo[1,2-a]pyrimidin-7-amine] |

same assay, conditions: compound 1 uM, radioligand [3H]T808 10 nM, 50 mM Tris pH 7.4, room temperature, 30 min

| % displacement of [3H]T808 (10 nM) at 1 uM [%] | Compound |
| --- | --- |
| 87 | COc1ccc(-c2cn3ccc(N4CCC(F)CC4)nc3n2)cc1 [Example 3, 7-(4-Fluoropiperidin-1-yl)-2-(4-methoxyphenyl)imidazo[1,2-a]pyrimidine] |
| 75 | FC1CCN(c2ccn3cc(-c4ccc(N5CCCC5)cc4)nc3n2)CC1 [Example 14, 7-(4-Fluoropiperidin-1-yl)-2-(4-pyrrolidin-1-ylphenyl)imidazo[1,2-a]pyrimidine] |
| 58 | FC1CCN(c2ccn3cc(-c4ccc(Cl)cc4)nc3n2)CC1 [Example 4, 2-(4-Chlorophenyl)-7-(4-fluoropiperidin-1-yl)imidazo[1,2-a]pyrimidine] |

| Compound | % displacement of [3H]T808 (10 nM) at 1 uM [%] |
| --- | --- |
| Cl.FCCN1CCN(c2ccn3cc(-c4ccccc4)nc3n2)CC1 [Example 24, 7-[4-(2-Fluoroethyl)piperazin-1-yl]-2-phenylimidazo[1,2-a]pyrimidine hydrochloride] | 64 |
| COc1cccc(-c2cn3ccc(N4CCN(CCF)CC4)nc3n2)c1.Cl [Example 20, 7-[4-(2-Fluoroethyl)piperazin-1-yl]-2-(3-methoxyphenyl)imidazo[1,2-a]pyrimidine hydrochloride] | 51 |
